Consider nine compounds from ChEMBL document CHEMBL1126071, “Cyclic pentapeptide endothelin antagonists with high ETA selectivity. Potency- and solubility-enhancing modifications” (J Med Chem, 1992).

The assay concerns the target T1, Endothelin-1 receptor (Sus scrofa, UniProt Q29010).
T1 sequence (Q29010 whole entry): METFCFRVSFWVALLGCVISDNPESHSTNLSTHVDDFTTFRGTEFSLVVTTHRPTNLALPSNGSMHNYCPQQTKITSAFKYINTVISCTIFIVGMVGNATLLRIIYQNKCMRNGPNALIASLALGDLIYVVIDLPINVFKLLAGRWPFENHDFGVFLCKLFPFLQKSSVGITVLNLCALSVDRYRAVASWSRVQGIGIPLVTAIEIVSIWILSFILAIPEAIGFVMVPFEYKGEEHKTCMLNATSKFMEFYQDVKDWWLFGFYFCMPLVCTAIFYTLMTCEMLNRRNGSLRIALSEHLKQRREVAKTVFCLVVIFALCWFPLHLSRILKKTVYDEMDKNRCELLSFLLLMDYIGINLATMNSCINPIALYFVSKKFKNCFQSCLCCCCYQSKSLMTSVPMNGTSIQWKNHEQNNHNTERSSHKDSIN
Put plainly: Binding activity against Endothelin A receptor of Porcine aortic smooth muscle membranes.

Residues, ends and D or L forms follow the SMILES beside them.

`CC[C@H](C)[C@H]1NC(=O)[C@H](C)NC(=O)[C@@H](CCC(=O)O)NC(=O)[C@@H](Cc2c[nH]c3ccccc23)NC(=O)[C@H](CC(C)C)NC1=O` (HELM PEPTIDE1{A.[CC[C@H](C)[C@@H](N[*:1])C(=O)[*:2]].L.[dW].[dE]}$PEPTIDE1,PEPTIDE1,1:R1-5:R2$$$V2.0) displayed an IC50 max of 1400 nM. Then `CC(C)C[C@@H]1NC(=O)[C@@H](C(C)C)NC(=O)[C@H](C)NC(=O)[C@@H](CC(=O)O)NC(=O)[C@@H](Cc2c[nH]c3ccccc23)NC1=O` (HELM PEPTIDE1{A.[dV].L.[dW].[dD]}$PEPTIDE1,PEPTIDE1,1:R1-5:R2$$$V2.0), with 110 nM.

On to `CC(C)C[C@@H]1NC(=O)[C@@H](C(C)C)NC(=O)[C@H](C)NC(=O)[C@@H](CCC(=O)O)NC(=O)[C@@H](Cc2c[nH]c3ccccc23)NC1=O` (HELM PEPTIDE1{A.[dV].L.[dW].[dE]}$PEPTIDE1,PEPTIDE1,1:R1-5:R2$$$V2.0), for which the IC50 max amounted to 3000 nM. Then `CC(C)[C@H]1NC(=O)[C@H](C)NC(=O)[C@@H](CC(=O)O)NC(=O)[C@@H](Cc2c[nH]c3ccccc23)NC(=O)[C@@H]2CCCN2C1=O` (HELM PEPTIDE1{A.[dV].P.[dW].[dD]}$PEPTIDE1,PEPTIDE1,1:R1-5:R2$$$V2.0), with 8500 nM; and `CC(C)C[C@@H]1NC(=O)[C@@H](C(C)C)NC(=O)[C@@H]2CCCN2C(=O)[C@@H](CC(=O)O)NC(=O)[C@@H](Cc2c[nH]c3ccccc23)NC1=O` (HELM PEPTIDE1{L.[dW].[dD].P.[dV]}$PEPTIDE1,PEPTIDE1,1:R1-5:R2$$$V2.0), with 22 nM; and `CC(C)C[C@@H]1NC(=O)[C@@H](C(C)C)NC(=O)CN(C)C(=O)[C@@H](CC(=O)O)NC(=O)[C@@H](Cc2c[nH]c3ccccc23)NC1=O` (HELM PEPTIDE1{L.[dW].[dD].[Sar].[dV]}$PEPTIDE1,PEPTIDE1,1:R1-5:R2$$$V2.0), with 32 nM. Regarding `CC(C)C[C@@H]1NC(=O)[C@@H](C(C)C)NC(=O)[C@H](C)N(C)C(=O)[C@@H](CC(=O)O)NC(=O)[C@@H](Cc2c[nH]c3ccccc23)NC1=O` (HELM PEPTIDE1{L.[dW].[dD].[meA].[dV]}$PEPTIDE1,PEPTIDE1,1:R1-5:R2$$$V2.0), the IC50 max stood at 34 nM. For the compound `CC(C)C[C@@H]1NC(=O)[C@@H](C(C)C)NC(=O)[C@@H]2CCCN2C(=O)[C@@H](CCC(=O)O)NC(=O)[C@@H](Cc2c[nH]c3ccccc23)NC1=O` (HELM PEPTIDE1{L.[dW].[dE].P.[dV]}$PEPTIDE1,PEPTIDE1,1:R1-5:R2$$$V2.0), the IC50 max was 410 nM. Then `CC(C)C[C@H]1C(=O)N[C@H](Cc2c[nH]c3ccccc23)C(=O)N[C@H](CC(=O)O)C(=O)N2CCC[C@H]2C(=O)N[C@H](C(C)C)C(=O)N1C` (HELM PEPTIDE1{[meL].[dW].[dD].P.[dV]}$PEPTIDE1,PEPTIDE1,1:R1-5:R2$$$V2.0), with 35 nM.
